Results published in patent US20130012465A1 (Boehringer Ingelheim International GmbH, priority 2009, published 2013).
Like-named read-outs stand apart in the source and are kept apart here.

Key:
BT 549 = assay: triple negative breast cell panel, EC50 2D/3D; type: cell-based; conditions: Homo sapiens
BT20 = assay: triple negative breast cell panel, EC50 2D/3D; type: cell-based; conditions: Homo sapiens, BT-20
CAMA-1 = assay: triple negative breast cell panel, EC50 2D/3D; type: cell-based; conditions: Homo sapiens
[1] = system: HER2-negative metastatic breast cancer; assay: Phase II clinical study, all treated patients (safety, PK, exposure); type: in vivo, human
Procedure: A Phase II, open-label, multicenter trial was conducted in Belgium and Germany. […] For Cohort A this was modified by amendment to clinical benefit (CB), i.e. complete response (CR), partial response (PR) and stable disease (SD) for at least 4 courses. • Secondary endpoints were time to progression, progression-free survival (PFS), overall survival (OS), time to objective response, duration of objective response, safety and pharmacokintics (PK). Clinical benefit (CR, PR, SD) was a secondary endpoint for Cohort B. • A total of 80 patients was planned to be enrolled into the trial: 80, i.e. 40 patients per cohort. […] Additional predose plasma samples were taken on Day 15 of Course 1, on Day 1 of Course 2 and on Day 1 of all subsequent courses (Course 3 onwards).
(§1) Dose reduction to 40 mg/day and 30 mg/day was an option for patients experiencing certain drug-related AEs.

[2] = system: HER2-negative, HR-positive mBC; assay: Phase II clinical study, Cohort B; type: in vivo, human
Procedure: (§2) A Phase II, open-label, multicenter trial was conducted in Belgium and Germany. Two Cohorts of patients were included: • Cohort A: Patients with triple negative mBC • Cohort B: Patients with HER2-negative, HR-positive mBC. • Primary endpoint for Cohort A and B initially was objective response as determined by response evaluation criteria in solid tumours (RECIST) criteria, as described by P. Therasse et al., J Natl Cancer Inst 2000, 92, 205-216. For Cohort A this was modified by amendment to clinical benefit (CB), i.e. complete response (CR), partial response (PR) and stable disease (SD) for at least 4 courses. • Secondary endpoints were time to progression, progression-free survival (PFS), overall survival (OS), time to objective response, duration of objective response, safety and pharmacokintics (PK). Clinical benefit (CR, PR, SD) was a secondary endpoint for Cohort B. • A total of 80 patients was planned to be enrolled into the trial: 80, i.e. 40 patients per cohort. […] Additional predose plasma samples were taken on Day 15 of Course 1, on Day 1 of Course 2 and on Day 1 of all subsequent courses (Course 3 onwards).
as §1
• Confirmed diagnosis of Stage IV HER2-negative metastatic breast cancer (HER22+ and fluorescence in situ hybridization-negative or HER21+ or negative) • Progression following no more than two lines of chemotherapy including adjuvant, not including hormone treatments for Cohort B • Age ≧18 years • Life expectancy of at least 6 months • Written informed consent • Eastern Cooperative Oncology Group (ECOG) performance score 0-2 • Measurable disease according to RECIST criteria • Availability of tumour samples (fresh or paraffin material) for EGFR-testing. • No prior treatment with EGFR/HER1 or HER2 inhibiting agent • Adequate liver, kidney and bone marrow function • No concomitant treatment with other investigational drugs • No other anti-cancer-therapy within four weeks prior to the first treatment with the trial drug. • Concurrent treatment with biphosphonates is allowed.
• ER-positive and/or PgR-positive patients: ER-status and PgR-status must be assessed by IHC and Allred (Harvey J M et al., J Clin Oncol 1999, 17(5), 1474-1481).

HCC 1806 = assay: triple negative breast cell panel, EC50 2D/3D; type: cell-based; conditions: Homo sapiens, HCC1806
triple negative mBC = conditions: Cohort A
Procedure: as §2, §1
• HR-negative patients: estrogen receptor (ER) status and progesterone receptor (PgR) status must be assessed by immunohistochemistry (IHC) and Allred (Harvey J M et al., J Clin Oncol 1999, 17(5), 1474-1481).

MDA-MB-468 = assay: triple negative breast cell panel, EC50 2D/3D; type: cell-based; conditions: Homo sapiens; MDA-MB-468, 3D
HCC 1937 = assay: triple negative breast cell panel, EC50 2D/3D; type: cell-based; conditions: Homo sapiens, HCC1937
MDA-MB-231 = assay: triple negative breast cell panel, EC50 2D/3D; type: cell-based; conditions: Homo sapiens
SUM 149PT = assay: triple negative breast cell panel, EC50 2D/3D; type: cell-based; conditions: Homo sapiens, SUM149PT
HCC 70 = assay: triple negative breast cell panel, EC50 2D/3D; type: cell-based; conditions: Homo sapiens, HCC70
HCC 1143 = assay: triple negative breast cell panel, EC50 2D/3D; type: cell-based; conditions: Homo sapiens, HCC1143
SUM149 Xenografts = assay: triple negative, EGFR positive SUM149 Xenografts in mice; type: in vivo
[3] = BT 549, 2D, read-out: EC50 [nM] 2D
[4] = BT20, 2D, read-out: EC50 [nM] 2D
[5] = BT20, 3D, read-out: EC50 [nM] 3D
[6] = CAMA-1, 2D, read-out: EC50 [nM] 2D
[7] = CAMA-1, 3D, read-out: EC50 [nM] 3D
[8] = 50 treated patients, 50 mg/day oral
[9] = HCC 1806, 2D, read-out: EC50 [nM] 2D
[10] = HCC 1806, 3D, read-out: EC50 [nM] 3D
[11] = three patients with clinical benefit for >4 months
[12] = HCC 1937, 2D, read-out: EC50 [nM] 2D
[13] = HCC 1937, 3D, read-out: EC50 [nM] 3D
[14] = MDA-MB-231, 2D, read-out: EC50 [nM] 2D
[15] = MDA-MB-231, 3D, read-out: EC50 [nM] 3D
[16] = HCC 70, 2D, read-out: EC50 [nM] 2D
[17] = HCC 70, 3D, read-out: EC50 [nM] 3D
[18] = HCC 1143, 2D, read-out: EC50 [nM] 2D
[19] = HCC 1143, 3D, read-out: EC50 [nM] 3D

Compound | EC50 (BT 549; [3]) [nM] | EC50 (BT20; [4]) [nM] | EC50 (BT20; [5]) [nM] | EC50 (CAMA-1; [6]) [nM] | EC50 (CAMA-1; [7]) [nM] | EC50 (HCC 1806; [9]) [nM] | EC50 (HCC 1806; [10]) [nM] | EC50 (MDA-MB-468) [nM] | EC50 (HCC 1937; [12]) [nM] | EC50 (HCC 1937; [13]) [nM] | EC50 (MDA-MB-231; [14]) [nM] | EC50 (MDA-MB-231; [15]) [nM] | EC50 (SUM 149PT) [nM] | EC50 (HCC 70; [16]) [nM] | EC50 (HCC 70; [17]) [nM] | EC50 (HCC 1143; [18]) [nM] | EC50 (HCC 1143; [19]) [nM] | other results
CN(C)C/C=C/C(=O)Nc1cc2c(Nc3ccc(F)c(Cl)c3)ncnc2cc1O[C@H]1CCOC1 [BIBW 2992, 4-[(3-chloro-4-fluorophenyl)amino]-6-{[4-(N,N-dimethylamino)-1-oxo-2-buten-1-yl]amino}-7-((S)-tetrahydrofuran-3-yloxy)-quinazo line] | 2020 | > 4000 | 23 | 234 | 277 | > 4000 | 47 | 1250 | > 4000 | > 4000 | > 10000 | 2150 | 17 | 571 | > 1000 | > 4000 | > 1000 | EC50 (BT 549; BT 549, 3D, read-out: EC50 [nM] 3D): 956 nM; patients discontinued due to dose-reducing toxicities ([1]; 50 treated patients): 15 patients; patients discontinued due to other AEs ([1]; 50 treated patients): four; patients discontinued treatment due to AEs [1, 8]: Nineteen; safety profile [1, 8]: safety profile similar to other EGFR TKIs; patients discontinued due to disease progression ([1]; all 50 treated patients): Thirty-one; patients discontinued due to disease progression [2]: 12 patients; objective response (OR), RECIST ([2]; 50 mg/day oral): No OR; patients with SD for ≧4 cycles ([2]; 50 mg/day oral): 1 patient; patients with a best response of SD ([2]; 21 patients included, 50 mg/day oral): 5 patients; patients discontinued due to disease progression (triple negative mBC): 19 patients; objective response (OR), RECIST (triple negative mBC; 50 mg/day oral): No objective response; patients remaining on treatment with SD for >4 cycles (triple negative mBC; 50 mg/day oral): three; overall median PFS (triple negative mBC; 29 patients): 53 days; patients with a best response of SD (triple negative mBC; 29 patients included, 50 mg/day oral): Seven; mean PFS (triple negative mBC; [11]): 217 days; median PFS (triple negative mBC; [11]): 184 days
CCOc1cc2ncc(C#N)c(Nc3ccc(OCc4ccccn4)c(Cl)c3)c2cc1NC(=O)/C=C/CN(C)C [HKI-272] | – | – | – | – | – | – | – | – | – | – | – | – | – | – | – | – | – | T/C [%] Day 42 (SUM149 Xenografts; 50 mg/kg/d (MTD)): 36%
C#Cc1cccc(Nc2ncnc3cc(OCCOC)c(OCCOC)cc23)c1 [erlotinib] | – | – | – | – | – | – | – | – | – | – | – | – | – | – | – | – | – | T/C [%] Day 42 (SUM149 Xenografts; 75 mg/kg/d (MTD)): 6%
CS(=O)(=O)CCNCc1ccc(-c2ccc3ncnc(Nc4ccc(OCc5cccc(F)c5)c(Cl)c4)c3c2)o1 [lapatinib, reference compound] | > 1000 | > 4000 | 467 | > 1000 | 3010 | > 4000 | > 4000 | > 1000 | > 4000 | > 4000 | > 10000 | > 4000 | 1360 | > 1000 | > 1000 | > 4000 | > 4000 | T/C [%] Day 42 (SUM149 Xenografts; 2 × 100 mg/kg/d (MTD)): 25%
